Test system: hepatitis induced by concanavalin A in mice
Test: Concanavalin A (Con A) hepatitis model, plasma ALT
Type: in vivo, BALB/c male mice
Details: 24 hr after Con A, control group 2068±518
Experimental: Effect in Concanavalin A (Con A) Hepatitis Model
Con A dissolved in physiological saline was intravenously administered at a dose of 20 mg/kg to BALB/c male mice (8 weeks in age) having a body weight of 21 to 25 g to induce hepatitis. A test compound (compound 7) was suspended in a mixed solution (control vehicle) composed of 25% dimethylsufoxide, 25% polyethylene glycol 400, and 0.25% carboxymethyl cellulose, and the suspension was subcutaneously administered 2 hr and 14 hr before the administration of Con A at three levels of dose, i.e., 0.2 mg/mouse, 1.0 mg/mouse, and 2.0 mg/mouse. A control vehicle alone was administered to a group of control mice. Twenty four hr after the administration of Con A, the mice were sacrificed under ether anesthesia to assay the alanine aminotransferase (ALT) activity, in plasma, as an index of hepatopathy.

Structure (SMILES): CC1(C)C[C@H]2C3=CC[C@@H]4[C@@]5(C)CC[C@H](O)[C@](C)(CO)[C@@H]5CC[C@@]4(C)[C@]3(C)CC[C@@]2(C)[C@H](O)[C@@H]1O [Compound 7, Soyasapogenol A]
- alanine aminotransferase (ALT) activity in plasma (1.0 mg/mouse subcutaneously 2 hr and 14 hr before Con A 20 mg/kg i.v.): 55±16 u/l
- alanine aminotransferase (ALT) activity in plasma (2.0 mg/mouse subcutaneously 2 hr and 14 hr before Con A 20 mg/kg i.v.): 55±16 u/l

Reference: patent publication US7153979B2, “Triterpene derivatives and remedies for liver diseases” (Meiji Seika Kaisha, Ltd., priority 1996, dated 2006)
